{"source": "patent US6372449B1", "about": "“Opthalmic methods and uses” (priority 1999, dated 2002)", "key": {"ocular structures [1]": {"system": "ocular structures", "conditions": "prior-art dyes, general statement; cited from earlier work"}, "[2]": {"system": "epiretinal and internal limiting membrane of the retina", "assay": "Staining of the inner limiting membrane with trypan blue solution during pars plana vitrectomy", "type": "in vivo, patient", "conditions": "0.1% w/w in physiological saline, instilled, left for 30 seconds, aspirated and irrigated; Patients A and B", "text": "In respect of retinal surgery for the removal of aberrant membranes or for the peeling of epiretinal and internal limiting membranes of the retina, the vitreous gel of the eye is removed by a technique known as pars plana vitrectomy, with stripping of the outer (cortical) vitreous. In place of the vitreous gel, infusion fluid is introduced into the eye via an infusion port. The inner limiting membrane may then be stained with trypan blue solution (for example 0.1% w/w) instilled with a fine silicone-tipped extrusion needle, left for 30 seconds to stain the membrane, aspirated, followed by irrigation of the area with balanced salt (physiological) solution. Peeling of the membrane proceeds and is greatly facilitated because of improved visualization of the extent of the membrane. The procedure is then completed in standard fashion with fluid-gas exchange.\nPatient A required peeling of epiretinal and internal limiting membrane of the retina as part of the surgical management of premacular fibrosis and macular hole conditions.\nPatient B is a diabetic suffering from severe diabetic retinopathy, with proliferative vitreo retinopathy.\nA 0.1% w/w solution of trypan blue in physiological saline is prepared.\nIn each patient the vitreous gel of the eye is removed by pars plana vitrectomy an established procedure in the art, which involves stripping of the outer (cortical) vitreous. […]"}, "trabecular meshwork": {"system": "trabecular meshwork", "assay": "Marking of the trabecular meshwork with trypan blue before laser treatment in glaucoma", "type": "in vivo", "conditions": "Patient C", "text": "Eye pressure is regulated in part by flow of ocular fluid (aqueous humour) through a biological valve, known as the trabecular meshwork. In glaucoma, a pathological condition where the eye pressure is raised, the eye pressure may be lowered by application of a laser energy source to the trabecular meshwork. In the prior art the success of this technique generally depends upon the presence of sufficient natural pigmentation of the trabecular meshwork which will absorb the laser energy. Using trypan blue to mark the trabecular meshwork improves identification of this structure, and the uptake of laser energy. A trypan blue solution is instilled into the eye in the location of the trabecular meshwork, and after a short time period such as from 10 seconds to one minute, the trypan blue solution is removed and the area generally irrigated to remove excess trypan blue. The now marked trabecular meshwork can be readily visually distinguished, and laser application can take place. Other ocular structures may be marked in the same manner so as to enable identification and if necessary surgical or other treatment.\nPatient C is a glaucoma sufferer who has elevated eye pressure. 0.1% trypan blue is instilled into the eye of patient C through a cannular, introducing the trypan blue solution in the area with trabecular meshwork."}, "ocular structures [3]": {"system": "ocular structures", "assay": "Toxicity and permanence of staining of dyes used in the eye", "conditions": "trypan blue, general statement", "text": "A number of dyes have been used in the eye to identify vital structures, examples of dyes used include indocyanin green, rose bengal, gentian violet and methylene blue."}}, "data": [{"smiles": "CN(C)c1ccc(C(=C2C=CC(=[N+](C)C)C=C2)c2ccc(N(C)C)cc2)cc1", "note": "[gentian violet]", "values": [{"measurement": "toxicity to ocular structures", "setting": "ocular structures [1]", "result": "toxic to ocular structures"}]}, {"smiles": "CC1(C)C(/C=C/C=C/C=C/C=C2\\N(CCCCS(=O)(=O)[O-])c3ccc4ccccc4c3C2(C)C)=[N+](CCCCS(=O)(=O)[O-])c2ccc3ccccc3c21.[Na+]", "note": "[indocyanin green]", "values": [{"measurement": "toxicity to ocular structures", "setting": "ocular structures [1]", "result": "toxic to ocular structures"}]}, {"smiles": "CN(C)c1ccc2nc3ccc(=[N+](C)C)cc-3sc2c1", "note": "[methylene blue]", "values": [{"measurement": "toxicity to ocular structures", "setting": "ocular structures [1]", "result": "toxic to ocular structures"}]}, {"smiles": "O=C([O-])c1c(Cl)c(Cl)c(Cl)c(Cl)c1-c1c2cc(I)c(=O)c(I)c-2oc2c(I)c([O-])c(I)cc12.[Na+].[Na+]", "note": "[rose bengal]", "values": [{"measurement": "toxicity to ocular structures", "setting": "ocular structures [1]", "result": "toxic to ocular structures"}]}, {"smiles": "Cc1cc(-c2ccc(/N=N/c3c(S(=O)(=O)O)cc4cc(S(=O)(=O)O)cc(N)c4c3O)c(C)c2)ccc1/N=N/c1c(S(=O)(=O)O)cc2cc(S(=O)(=O)O)cc(N)c2c1O", "note": "[trypan blue]", "values": [{"measurement": "visual identification of membranes after staining", "setting": "[2]", "result": "readily identified"}, {"measurement": "visualization of the trabecular meshwork", "setting": "trabecular meshwork; 0.1% trypan blue instilled through a cannular, glaucoma", "result": "visualized by simple visual identification"}, {"measurement": "eye pressure after laser treatment", "setting": "trabecular meshwork; 0.1% trypan blue marking followed by laser light, elevated eye pressure", "result": "Successful lowering of eye pressure"}, {"measurement": "uptake of laser energy", "setting": "trabecular meshwork; 0.1% trypan blue, after irrigation, area subject to laser light", "result": "improving uptake of laser energy"}, {"measurement": "reversibility of staining of eye structures", "setting": "ocular structures [3]", "result": "does not irreversibly stain eye structures"}, {"measurement": "toxicity in the eye", "setting": "ocular structures [3]", "result": "non-toxic"}]}]}
